Experimental findings from ChEMBL document CHEMBL1944611, “Genistein binding mode to doubly nicked dumbbell DNA. Dynamic and diffusion ordered NMR study” (J Med Chem, 2011) are described below.

What all share (format): nucleic-acid assay
For assay [1], the system named is Nucleic Acid. The experiment in a line: Binding affinity to Doubly nicked dumbbell DNA 5'-TCGAACGC/iSp18/GCTG/3Phos/-3' at 1.4 mM compound concentration and pH 9.2.
In assay [2] the test system is Nucleic Acid. Kind of assay: Binding affinity to Doubly nicked dumbbell DNA 5'-TCGAACGC/iSp18/GCTG/3Phos/-3' at 1 mM DNA concentration and pH 8.6.
The subject of assay [3] is Nucleic Acid. The experiment in a line: Binding affinity to Doubly nicked dumbbell DNA 5'-TCGAACGC/iSp18/GCTG/3Phos/-3' at 1 mM DNA concentration and pH 8.4.
Assay [4] concerns Nucleic Acid. Kind of assay: Binding affinity to Doubly nicked dumbbell DNA 5'-TCGAACGC/iSp18/GCTG/3Phos/-3' at 1 mM DNA concentration and pH 9.2.
Assay [5] concerns Nucleic Acid. Kind of assay: Binding affinity to Doubly nicked dumbbell DNA 5'-TCGAACGC/iSp18/GCTG/3Phos/-3' at 1.4 mM compound concentration and pH 8.4.
Assay [6] relates to Nucleic Acid. The experiment in a line: Binding affinity to Doubly nicked dumbbell DNA 5'-TCGAACGC/iSp18/GCTG/3Phos/-3' at 1 mM compound concentration and pH 8.6.
Assay [7] concerns Nucleic Acid. The experiment in a line: Binding affinity to Doubly nicked dumbbell DNA 5'-TCGAACGC/iSp18/GCTG/3Phos/-3' at 1.9 mM DNA concentration and pH 6.
The test system of assay [8] is Nucleic Acid. The experiment in a line: Binding affinity to Doubly nicked dumbbell DNA 5'-TCGAACGC/iSp18/GCTG/3Phos/-3' at 1 mM compound concentration and pH 6.

On to `O=c1c(-c2ccc(O)cc2)coc2cc(O)cc(O)c12`, for which the Ka worked out at 0.17 mM⁻¹ in the assay with Nucleic Acid [1]; 0.77 mM⁻¹ with Nucleic Acid [2]; 0.57 mM⁻¹ in the assay on Nucleic Acid [3]; 0.31 mM⁻¹ with Nucleic Acid [4]; 0.23 mM⁻¹ in the assay on Nucleic Acid [5]; 0.38 mM⁻¹ with Nucleic Acid [6].
On to `CN(C)Cc1c(O)c(CN(C)C)c2occ(-c3ccc(O)cc3)c(=O)c2c1O`, for which the Ka with Nucleic Acid [7] came out at 0.71 mM⁻¹; in the assay with Nucleic Acid [8] it was 0.5 mM⁻¹.
